According to patent publication EP0796090B1, “CROSS-LINKED MICROPARTICLES AND THEIR USE AS T[…]” (Elan Drug Delivery Limited, priority 1994, dated 1996):

System: HSN cell line
Experiment: In vitro cytotoxic activity, MTT assay
Format: cell-based, rat
Conditions: HSN cells; for Emax: Rattus norvegicus, read-out: maximum reduction in cell activity
Experimental: Cytotoxic activity of the drug-microcapsule conjugates of Examples 5 to 7 was measured in vitro. The HSN cell line was used. This is a chemically-induced rat colonic sarcoma, which produces liver tumours in an animal model with a vascular pattern similar to that seen in human colorectal liver metastases. Cell kill was measured indirectly using MTT. This is reduced in active mitochondria to formazan, a coloured metabolite. HSN cells were incubated in multi-well plates to which was added a control dose of drug or drug-microcapsule lysate. After a range of exposure times, MTT was added to the wells and the concentration of formazan measured as an indication of […]. The assay was calibrated for this cell line against a range of known cell numbers.

2-fluoro-5-deoxyuridine [Example 5-FUdR]
maximum reduction in cell activity: approximately 80%

COc1cccc2c1C(=O)c1c(O)c3c(c(O)c1C2=O)C[C@@](O)(C(=O)CO)C[C@@H]3O[C@H]1C[C@H](N)[C@H](O)[C@H](C)O1 [doxorubicin]
steepest part of the dose response curve: ≤ 0.1 µg/mL | Emax: ~80%

CN(Cc1cnc2nc(N)nc(N)c2n1)c1ccc(C(=O)N[C@@H](CCC(=O)O)C(=O)O)cc1 [methotrexate]
Emax: ~80%
